Assay results from PubChem BioAssay AID256 (DTP/NCI, 2004).
“And” between values parts separate entries of the source, which are not always exact repeats. Equal entries are not always repeated. Inconclusive results and toxic doses are left out. Rule for the calls: active = survival T/C of 150% or more; inactive = T/C below 125% in these data.

Test system: CD2F1 mice, L1210 leukemia ip, survival T/C
Assay: NCI In Vivo Anticancer Drug Screen. Data for tumor model L1210 Leukemia (intraperitoneal) in CD2F1 (CDF1) mice
Conditions: higher = longer survival
Procedure, shortened: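 Mice carrying a transplanted tumor received test compound or vehicle alone. The value is the measurement in the treated group divided by that in the vehicle-treated control group.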

[1] = endpoint: mean survival time, dose: 100.0 mg/kg/injection, schedule: Q04DX003 (ip), vehicle: saline
[2] = endpoint: mean survival time, dose: 100.0 mg/kg/injection, schedule: Q04DX002 (ip), vehicle: saline
[3] = endpoint: mean survival time, dose: 200.0 mg/kg/injection, schedule: Q04DX002 (ip), vehicle: saline
[4] = endpoint: mean survival time, dose: 100.0 mg/kg/injection, schedule: Q04DX002 (ip), vehicle: saline with Tween-80
[5] = endpoint: mean survival time, dose: 200.0 mg/kg/injection, schedule: Q04DX002 (ip), vehicle: saline with Tween-80
[6] = endpoint: mean survival time, dose: 400.0 mg/kg/injection, schedule: Q04DX002 (ip), vehicle: saline with Tween-80
[7] = endpoint: mean survival time, dose: 100.0 mg/kg/injection, schedule: Q04DX003 (ip), vehicle: saline with Tween-80
[8] = endpoint: mean survival time, dose: 200.0 mg/kg/injection, schedule: Q04DX003 (ip), vehicle: saline with Tween-80
[9] = endpoint: mean survival time, dose: 400.0 mg/kg/injection, schedule: Q04DX003 (ip), vehicle: saline with Tween-80
[10] = endpoint: mean survival time, dose: 100.0 mg/kg/injection, schedule: Q01DX001 (ip), vehicle: saline
[11] = endpoint: mean survival time, dose: 200.0 mg/kg/injection, schedule: Q01DX001 (ip), vehicle: saline
[12] = endpoint: mean survival time, dose: 400.0 mg/kg/injection, schedule: Q01DX001 (ip), vehicle: saline
[13] = endpoint: mean survival time, dose: 50.0 mg/kg/injection, schedule: Q04DX002 (ip), vehicle: saline
[14] = endpoint: mean survival time, dose: 3.12 mg/kg/injection, schedule: Q01DX009 (ip), vehicle: saline with Tween-80
[15] = endpoint: mean survival time, dose: 6.25 mg/kg/injection, schedule: Q01DX009 (ip), vehicle: saline with Tween-80
[16] = endpoint: mean survival time, dose: 12.5 mg/kg/injection, schedule: Q01DX009 (ip), vehicle: saline with Tween-80
[17] = endpoint: mean survival time, dose: 25.0 mg/kg/injection, schedule: Q01DX009 (ip), vehicle: saline with Tween-80
[18] = endpoint: mean survival time, dose: 50.0 mg/kg/injection, schedule: Q01DX009 (ip), vehicle: saline with Tween-80
[19] = endpoint: mean survival time, dose: 100.0 mg/kg/injection, schedule: Q01DX009 (ip), vehicle: saline with Tween-80
[20] = endpoint: mean survival time, dose: 200.0 mg/kg/injection, schedule: Q01DX009 (ip), vehicle: saline with Tween-80
[21] = endpoint: mean survival time, dose: 400.0 mg/kg/injection, schedule: Q01DX009 (ip), vehicle: saline with Tween-80

Measured: T/C

CC(C)(O)C1OCC(C2CCC3(C)C4=CCC5C(C)(C)C(O)CCC5(C)C4CCC23C)CC1O (centres undefined)
inactive: endpoint: mean survival time, dose: 2.5 mg/kg/injection, schedule: Q01DX009 (ip), vehicle: Klucel (hydroxypropylcellulose) (HPC) 94 % of control | endpoint: mean survival time, dose: 5.0 mg/kg/injection, schedule: Q01DX009 (ip), vehicle: Klucel (hydroxypropylcellulose) (HPC) 103 % of control | endpoint: mean survival time, dose: 10.0 mg/kg/injection, schedule: Q01DX009 (ip), vehicle: Klucel (hydroxypropylcellulose) (HPC) 88 % of control

CC(O)c1ccc2c(c1)N(CCCN1CCN(CCO)CC1)c1ccccc1S2 (centres undefined)
inactive: [1] 97 % of control

Nc1nc(=O)[nH]c(N)c1N
inactive: [2] 97 % of control | [3] 117 % of control

CCOC(=O)C(c1ccccc1)P(=O)(OCC)OCC (centres undefined)
inactive: [4] 111 % of control | [5] 100 % of control | [6] 100 % of control

Cc1ccc(C)c(NC(=O)c2ccc(Cl)cc2)c1
inactive: [7] 97 % of control | [8] 97 % of control | [9] 92 % of control

Cc1nc(N)[nH]c(=O)c1Cc1ccccc1O
inactive: [10] 100 % of control | [11] 97 % of control | [12] 97 % of control

CC1CC(C)(C)NC(C)(C(C)CC(C)(C)C)O1 (centres undefined)
inactive: [13] 108 % of control | endpoint: mean survival time, dose: 100.0 mg/kg/injection, schedule: Q01DX001 (ip), vehicle: saline with Tween-80 93 % of control | [2] 104 % of control | endpoint: mean survival time, dose: 200.0 mg/kg/injection, schedule: Q01DX001 (ip), vehicle: saline with Tween-80 93 % of control | [3] 93 % of control

CCCOCC(O)CNCCN (centres undefined)
inactive: endpoint: mean survival time, dose: 12.5 mg/kg/injection, schedule: Q01DX009 (ip), vehicle: saline 96 % of control and 101 % of control | endpoint: mean survival time, dose: 25.0 mg/kg/injection, schedule: Q01DX009 (ip), vehicle: saline 94 % of control and 98 % of control | endpoint: mean survival time, dose: 50.0 mg/kg/injection, schedule: Q01DX009 (ip), vehicle: saline 93 % of control and 94 % of control | endpoint: mean survival time, dose: 100.0 mg/kg/injection, schedule: Q01DX009 (ip), vehicle: saline 93 % of control and 96 % of control

C(=C\c1nnnn1C12CC3CC(CC(C3)C1)C2)/c1ccccc1
inactive: [10] 104 % of control | [11] 104 % of control | [12] 96 % of control

NC1CS(=O)(=O)CC1O (centres undefined)
inactive: [7] 98 % of control | [8] 96 % of control | [9] 95 % of control

CN=S(=O)(OCCCCCOS(=O)(=NC)c1ccc(C)cc1)c1ccc(C)cc1 (centres undefined)
inactive: endpoint: mean survival time, dose: 0.39 mg/kg/injection, schedule: Q01DX009 (ip), vehicle: saline with Tween-80 97 % of control | endpoint: mean survival time, dose: 0.78 mg/kg/injection, schedule: Q01DX009 (ip), vehicle: saline with Tween-80 103 % of control | endpoint: mean survival time, dose: 1.56 mg/kg/injection, schedule: Q01DX009 (ip), vehicle: saline with Tween-80 97 % of control | [14] 105 % of control | [15] 95 % of control and 100 % of control | [16] 97 % of control and 101 % of control | [17] 103 % of control | [18] 97 % of control | [19] 101 % of control | [20] 100 % of control

ClC1=C(Cl)C(Cl)=C(Cl)C1=Cc1ccccc1
inactive: [14] 101 % of control | [15] 104 % of control | [16] 105 % of control | [17] 106 % of control | [18] 105 % of control

O=C1CC2/C(=[N+](/[O-])O)C=C([N+](=O)[O-])C(C1C(=O)Nc1ccccc1)C2[N+](=O)[O-] (centres undefined)
inactive: [4] 110 % of control | [5] 98 % of control | [6] 110 % of control

S=P(S)(c1ccccc1)c1ccccc1
inactive: endpoint: mean survival time, dose: 80.5 mg/kg/injection, schedule: Q01DX009 (ip), vehicle: saline with Tween-80 104 % of control | endpoint: mean survival time, dose: 161.0 mg/kg/injection, schedule: Q01DX009 (ip), vehicle: saline with Tween-80 98 % of control | endpoint: mean survival time, dose: 322.0 mg/kg/injection, schedule: Q01DX009 (ip), vehicle: saline with Tween-80 100 % of control

NC(N)=N/N=C/c1ccncc1
inactive: [2] 92 % of control

NC1=NC(=O)/C(=C/c2ccccc2)S1
inactive: [7] 93 % of control | [8] 97 % of control | [9] 97 % of control

Cc1ncc(COP(=O)(O)O)c(C=NC(C)C(=O)O)c1O.O.[Cu] (centres undefined)
inactive: endpoint: mean survival time, dose: 6.25 mg/kg/injection, schedule: Q01DX001 (ip), vehicle: saline with Tween-80 95 % of control | endpoint: mean survival time, dose: 12.5 mg/kg/injection, schedule: Q01DX001 (ip), vehicle: saline with Tween-80 92 % of control | endpoint: mean survival time, dose: 25.0 mg/kg/injection, schedule: Q01DX001 (ip), vehicle: saline with Tween-80 103 % of control

CS(=O)(=O)c1cnccn1
inactive: endpoint: mean survival time, dose: 100.0 mg/kg/injection, schedule: Q04DX003 (ip), vehicle: saline sonified 93 % of control | endpoint: mean survival time, dose: 200.0 mg/kg/injection, schedule: Q04DX003 (ip), vehicle: saline sonified 95 % of control | endpoint: mean survival time, dose: 400.0 mg/kg/injection, schedule: Q04DX003 (ip), vehicle: saline sonified 96 % of control

CCCCOC(=O)c1ccc(NC(=O)NCCC)cc1
inactive: [1] 101 % of control | endpoint: mean survival time, dose: 200.0 mg/kg/injection, schedule: Q04DX003 (ip), vehicle: saline 101 % of control | endpoint: mean survival time, dose: 400.0 mg/kg/injection, schedule: Q04DX003 (ip), vehicle: saline 97 % of control

O=C(O)CN(CC(=O)O)Cc1ccccc1
inactive: [10] 103 % of control | [11] 103 % of control | [12] 103 % of control

Cc1cccc(NC(=O)c2ccccc2)n1
inactive: [16] 97 % of control | [17] 101 % of control | [18] 103 % of control

Cc1cn2c(nc1=O)OC1C(O)C(CCl)OC12 (centres undefined)
inactive: endpoint: median survival time, dose: 12.5 mg/kg/injection, schedule: Q01DX005 (ip), vehicle: saline with Tween-80 103 % of control | endpoint: median survival time, dose: 25.0 mg/kg/injection, schedule: Q01DX005 (ip), vehicle: saline with Tween-80 96 % of control | endpoint: median survival time, dose: 50.0 mg/kg/injection, schedule: Q01DX005 (ip), vehicle: saline with Tween-80 103 % of control | endpoint: median survival time, dose: 100.0 mg/kg/injection, schedule: Q01DX005 (ip), vehicle: saline with Tween-80 95 % of control | endpoint: median survival time, dose: 200.0 mg/kg/injection, schedule: Q01DX005 (ip), vehicle: saline with Tween-80 94 % of control

O=C1NC2(c3ccccc3)NC(=O)NC2(c2ccccc2)N1 (centres undefined)
inactive: [19] 98 % of control | [7] 101 % of control | [20] 98 % of control | [8] 97 % of control | [21] 104 % of control | [9] 95 % of control

N#CC1C2CCC(O2)C1C(=O)OCc1ccccc1 (centres undefined)
inactive: [17] 102 % of control | endpoint: mean survival time, dose: 25.0 mg/kg/injection, schedule: Q04DX002 (ip), vehicle: saline with Tween-80 106 % of control | [18] 102 % of control | endpoint: mean survival time, dose: 50.0 mg/kg/injection, schedule: Q04DX002 (ip), vehicle: saline with Tween-80 101 % of control | [19] 102 % of control | [4] 101 % of control | [5] 89 % of control

C=CCS(=O)[O-].[C-]#[O+].[C-]#[O+].[Fe+6].[c-]1[c-][c-][cH-][c-]1
inactive: endpoint: mean survival time, dose: 12.5 mg/kg/injection, schedule: Q04DX002 (ip), vehicle: saline 97 % of control | endpoint: mean survival time, dose: 25.0 mg/kg/injection, schedule: Q04DX002 (ip), vehicle: saline 102 % of control | [13] 100 % of control

CCOC(=O)NC(O)C(Cl)(Cl)Cl (centres undefined)
inactive: [19] 97 % of control | [20] 106 % of control | [21] 112 % of control
